In patent publication US20260125375A1 (Pfizer Inc., priority 2022, published 2026) one finds Ki, Kd and EC50 data, which are given here for 13 compounds.

By Ki is commonly meant a measure of affinity in units of concentration, obtained from inhibition or displacement. As usually defined, the Kd is the equilibrium constant for the complex coming apart. A word on the EC50: it is the midpoint of the concentration-response curve.

The target in assay [1] is T1, CBL-B (residues 36-427) (Homo sapiens, UniProt Q13191).
T1 construct: Purified CBL-B (residues 36-427) and C-CBL (residues 46-435) proteins from baculovirus-infected insect cells; made in house; host or cells: baculovirus-infected insect cells
As to the kind of experiment: Ligand Displacement Assay (LDA), HTRF competitive binding against BODIPY-labeled fluorescent tracer, CBL-B. The note with it: geometric mean of the number of tests, read-out: CBL-B Ki (nM) GMean. In outline:
(§1)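 Ki values, given as geometric means of repeated tests, come from TR-FRET displacement of a BODIPY-labelled tracer from terbium-streptavidin-bound, AviTag-biotinylated protein made in baculovirus-infected insect cells. Compounds ran as three-fold dilutions in duplicate, […], 2% DMSO.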
Background: Time-resolved FRET reads energy transfer from a long-lived donor to a nearby acceptor.

The target of assay [2] is T2, C-CBL (residues 46-435) (Homo sapiens, UniProt P22681).
T2 construct: Purified CBL-B (residues 36-427) and C-CBL (residues 46-435) proteins from baculovirus-infected insect cells; made in house; host or cells: baculovirus-infected insect cells
T2 sequence (P22681 46-435): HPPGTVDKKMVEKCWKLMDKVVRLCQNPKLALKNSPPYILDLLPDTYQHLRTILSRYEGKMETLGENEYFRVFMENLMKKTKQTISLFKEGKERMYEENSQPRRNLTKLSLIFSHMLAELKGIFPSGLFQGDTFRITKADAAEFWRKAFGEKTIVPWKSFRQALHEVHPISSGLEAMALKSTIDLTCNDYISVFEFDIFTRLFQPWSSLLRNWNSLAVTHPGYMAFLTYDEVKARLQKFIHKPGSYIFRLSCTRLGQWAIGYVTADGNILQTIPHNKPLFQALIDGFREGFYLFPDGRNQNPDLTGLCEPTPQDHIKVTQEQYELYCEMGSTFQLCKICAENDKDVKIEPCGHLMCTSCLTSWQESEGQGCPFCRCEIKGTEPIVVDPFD
Put plainly: Ligand Displacement Assay (LDA), HTRF competitive binding against BODIPY-labeled fluorescent tracer, C-CBL. The note with it: geometric mean of the number of tests, read-out: C-CBL Ki (nM) GMean. In outline:
as §1

Assay [3] deals with T3, WT CBL-B (36-427) (Homo sapiens, UniProt Q13191).
T3 construct: N-terminal biotinylated WT CBL-B (36-427) and C-CBL (46-435) were captured on a streptavidin (SA) coated sensor chip
As to the kind of experiment: Surface Plasmon Resonance (SPR) assay, binding affinity and kinetics, CBL-B. The note with it: SPR at 10° C., biotinylated WT CBL-B (36-427) on streptavidin chip; geometric mean; read-out: CBL-B SPR Kd (nM) GMean. In outline:
(§2)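 SPR kinetics at 10° C, run either single-cycle (0.001–1 μM, 3-fold, 6 points, 120 s on, >5400 s off) or multi-cycle (10 points, 2-fold, top 10 or 100 μM, 90 s on). Proteins were N-biotinylated CBL-B (36-427) and C-CBL (46-435) on SA surfaces, in pH 7.2 HEPES, 2% DMSO.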

Assay [4] deals with T4, C-CBL (46-435) (Homo sapiens, UniProt P22681).
T4 construct: N-terminal biotinylated WT CBL-B (36-427) and C-CBL (46-435) were captured on a streptavidin (SA) coated sensor chip
T4 sequence (P22681 46-435): T2 sequence (P22681 46-435)
As to the kind of experiment: Surface Plasmon Resonance (SPR) assay, binding affinity and kinetics, C-CBL. As to conditions: SPR at 10° C., biotinylated C-CBL (46-435) on streptavidin chip; geometric mean; read-out: C-CBL SPR Kd (nM) GMean. In outline: as §2

Assay [5] addresses T5, C-CBL (Homo sapiens, UniProt P22681).
T5 construct: endogenous in cells; host or cells: Jurkat HiBit-IL2 reporter cells, CBL-B knocked out by CRISPR
As to the kind of experiment: Jurkat HiBit-IL2 assay (CBL-B KO), reporter cell line expressing C-CBL only. The assay is classed as cell-based. The note with it: CBL-B KO (C-CBL only), anti-CD3/anti-CD28 stimulation 4 hours, geometric mean, Table 16a, read-out: CBL-B KO EC50 (nM) GMean. An excerpt:
Jurkat HiBit-IL2 Assay (WT, c-CBL KO, CBL-B KO)
The purpose of the Jurkat HiBit-IL2 assay is to evaluate the effect of the inhibition of CBL-B and/or C-CBL on TCR/CD28 stimulated interleukin-2 (IL-2) secretion.
The expression of IL-2 can then be accurately measured by HiBit luciferase assay. Further, C-CBL or CBL-B was knocked out by CRISPR respectively in this Jurkat HiBit-IL2 reporter cell line to create reporter cell line expressing CBL-B only (c-CBL knockout (KO)) or C-CBL only (CBL-B KO).
All three reporter cell lines were maintained in RPMI-1640 media with GlutaMax, 10% fetal bovine serum, 100 units/ml of penicillin, and 100 μg/ml of streptomycin at 37° C., 5% CO2, at a cell density 1×10e5-2×10e6 viable cells/ml. Serial diluted compounds in DMSO (40 nl/well, final 0.1% DMSO in assay cell culture) were plated into 384-well white-wall clear-bottom cell culture plates. Reporter cells were pelleted and resuspended in fresh cell culture medium to 0.66×10e6 cells/ml and added to the assay plate at 30 μl/well (20,000 cells/well). The cells were incubated with compounds for 1 hour at 37° C., 5% CO2. 10 μl/well of anti-CD3 antibody (OKT3) and anti-CD28 antibody (CD28.2) prediluted in fresh cell culture medium at 4× final concentration (anti-CD3 mAb: 4 μg/ml; anti-CD28 mAb: 8 μg/ml) was added into the cells (final concentration of anti-CD3 mAb: 1 μg/ml; anti-CD28 mAb: 2 μg/ml). The cells were cultured for another 4 hours at 37° C., 5% CO2. The Nano-Glo HiBiT Lytic Reagent was prepared following the manufacturer's protocol. 20 ul/well of the Nano-Glo HiBiT Lytic Reagent was added into the reporter cell culture assay plate and incubated at room temperature (20-25° C.) for 15 minutes. The plates were read on a Perkin-Elmer EnVision plate reader with 0.1 second integration time. Data were normalized to “Fold of Effect” with the anti-CD3 and anti-CD28 antibodies only samples as the baseline activation level and EC50 was calculated. The EC50 (nM) values reported are the geometric means (GMean) of the number of tests conducted.
For orientation: The HiBiT peptide binds its large partner to form an active luciferase.

As for `Cn1cnnc1[C@@H](c1cccc(-c2n[nH]c3c(CN[C@@H]4CCC(F)(F)C4)nc(C(F)(F)F)cc23)c1)C1CCC1` [Example C5, (1R)-N-{[3-{3-[(R)-cyclobutyl(4-methyl-4H-1,2,4-triazol-3-yl)methyl]phenyl}-5-(trifluoromethyl)-1H-pyrazolo[3,4-c]cyclopen-7-yl]methyl}-3,3-difluorocyclopentan-1-amine], the inhibitory constant (Ki) worked out at 55.3 nM in assay [1] and 526 nM in assay [2]. For the same compound, the dissociation constant (Kd) is 3.4 nM in assay [3] and 203 nM in assay [4]. In addition, the EC50 in assay [5] was found to be 1250 nM.
As for `Cn1cnnc1CC1(c2cccc(-c3n[nH]c4cnc(Cl)cc34)c2)COC1` [Example B8, 5-chloro-3-(3-{3-[(4-methyl-4H-1,2,4-triazol-3-yl)methyl]oxetan-3-yl}phenyl)-1H-pyrazolo[3,4-c]pyridine], the figures for the Ki in assay [1] and in assay [2] were 28.6 nM and 142 nM, respectively. Moreover, the results for the equilibrium dissociation constant (Kd) in assay [3] and in assay [4] were 15.9 nM and 180 nM, respectively.
On the same counts, the results for `CC(N)c1nc(C(F)(F)F)cc2c(-c3cccc(C4(Cc5nncn5C)COC4)c3)n[nH]c12` (single isomer, unassigned) [Example K17, (1ξ)-1-[3-(3-{3-[(4-methyl-4H-1,2,4-triazol-3-yl)methyl]oxetan-3-yl}phenyl)-5-(trifluoromethyl)-1H-pyrazolo[3,4-c]pyridin-7-yl]ethan-1-amine] are 44.6 nM, 145 nM, 27.3 nM and 256 nM.
For `C[C@H](c1nc(C(F)(F)F)cc2c(-c3cccc(C4(Cc5nncn5C)COC4)c3)n[nH]c12)N(C)C` (single isomer, unassigned) [Example D40], the inhibition constant Ki in assay [1] stood at 23.9 nM; in assay [2], 98.1 nM. Moreover, the Kd in assay [3] stood at 5.5 nM; in assay [4] it was 88.5 nM.
As to `CCNC(C)c1nc(C(F)(F)F)cc2c(-c3cccc(C4(Cc5nncn5C)COC4)c3)n[nH]c12` (single isomer, unassigned) [Example C83, (1ξ)-N-ethyl-1-[3-(3-{3-[(4-methyl-4H-1,2,4-triazol-3-yl)methyl]oxetan-3-yl}phenyl)-5-(trifluoromethyl)-1H-pyrazolo[3,4-c]pyridin-7-yl]ethan-1-amine], the values for the Ki in assay [1] and in assay [2] were 37.1 nM and 137 nM, respectively. Moreover, the Kd in assay [3] was 12.4 nM; in assay [4], 161 nM.
Consider `CC(CN)c1nc(C(F)(F)F)cc2c(-c3cccc([C@H](c4nncn4C)C4CCC4)c3)n[nH]c12` (single isomer, unassigned) [Example K15], for which the inhibitory constant (Ki) was found to be 30.1 nM in assay [1] and 263 nM in assay [2]. For the same compound, the Kd in assay [3] was 23.9 nM; in assay [4] it was 452 nM.
In the case of `Cc1cc2c(-c3cccc([C@H](c4nncn4C)C4CCC4)c3)n[nH]c2cn1` [Example A6, 3-{3-[(R)-cyclobutyl(4-methyl-4H-1,2,4-triazol-3-yl)methyl]phenyl}-5-methyl-1H-pyrazolo[3,4-c]pyridine], the Ki in assay [1] was found to be 51.5 nM; in assay [2], 525 nM. The Kd in assay [3] came to 21.4 nM; in assay [4] it was 882 nM.
The matching figures for `Cn1cnnc1CC1(c2cccc(-c3n[nH]c4c(CN5CCOCC5)nc(C(F)(F)F)cc34)c2)COC1` [Example C63, 3-(3-{3-[(4-methyl-4H-1,2,4-triazol-3-yl)methyl]oxetan-3-yl}phenyl)-7-[(morpholin-4-yl)methyl]-5-(trifluoromethyl)-1H-pyrazolo[3,4-c]pyridine]: 27 nM, 120 nM, 8 nM and 91.8 nM.
In the case of `Cn1cnnc1[C@@H](c1cccc(-c2n[nH]c3c(C4CCCCN4)nc(C(F)(F)F)cc23)c1)C1CCC1` (single isomer, unassigned) [Example L2], the inhibition constant (Ki) was determined as 90.1 nM in assay [1] and 721 nM in assay [2]. The equilibrium dissociation constant (Kd) in assay [3] is 30 nM; in assay [4] it was 307 nM.
Turning to `CN1CC[C@@H](N(C)c2nc(C(F)(F)F)cc3c(-c4cccc([C@H](c5nncn5C)C5CCC5)c4)n[nH]c23)C1` [Example J11, 3-{3-[(R)-cyclobutyl(4-methyl-4H-1,2,4-triazol-3-yl)methyl]phenyl}-N-methyl-N-[(3R)-1-methylpyrrolidin-3-yl]-5-(trifluoromethyl)-1H-pyrazolo[3,4-c]pyridin-7-amine], the values for the Ki in assay [1] and in assay [2] were 41.6 nM and 275 nM, respectively. Also, the dissociation constant Kd turned out to be 24 nM in assay [3] and 393 nM in assay [4].
On the same counts, the results for `C[C@H](CO)c1nc(C(F)(F)F)cc2c(-c3cccc([C@H](c4nncn4C)C4CCC4)c3)n[nH]c12` (single isomer, unassigned) [Example K3, (2ξ)-2-[3-{3-[(ξ)-cyclobutyl(4-methyl-4H-1,2,4-triazol-3-yl)methyl]phenyl}-5-(trifluoromethyl)-1H-pyrazolo[3,4-c]pyridin-7-yl]propan-1-ol] are 11 nM, 96.5 nM, 4 nM and 160 nM.
On to `C[C@@H](c1nc(C(F)(F)F)cc2c(-c3cccc(C4(Cc5nncn5C)COC4)c3)n[nH]c12)N1CCC1` (single isomer, unassigned) [Example D41], for which the figures for the Ki in assay [1] and in assay [2] were 18.5 nM and 65.5 nM, respectively. The figures for the dissociation constant (Kd) in assay [3] and in assay [4] were 6.2 nM and 50.8 nM, respectively.
Turning to `Cn1cnnc1[C@@H](c1cccc(-c2n[nH]c3c(CN4CC[C@H](F)C4)nc(C(F)(F)F)cc23)c1)C1CCC1` [Example C110, 3-{3-[(R)-cyclobutyl(4-methyl-4H-1,2,4-triazol-3-yl)methyl]phenyl}-7-{[(3S)-3-fluoropyrrolidin-1-yl]methyl}-5-(trifluoromethyl)-1H-pyrazolo[3,4-c]pyridine], the values for the Ki in assay [1] and in assay [2] were 50 nM and 464 nM, respectively. Moreover, the results for the equilibrium dissociation constant (Kd) in assay [3] and in assay [4] were 6.4 nM and 300 nM, respectively.
